{"source": "patent US6359152B2", "about": "“18-substituted-19-nor-vitamin D compounds” (Wisconsin Alumni Research Foundation, priority 1997, dated 2002)", "key": {"[1]": {"system": "Intestinal Calcium Transport", "assay": "Intestinal calcium transport (everted sac) in vitamin D-deficient rats after chronic dosing", "format": "in vivo", "conditions": "for Intestinal Calcium Transport (S/M): intraperitoneal, vitamin D-deficient low calcium diet rats, mean ± SEM, 24 h after last dose; for intestinal calcium transport activity (in words): versus control, given for 7 days in a chronic mode", "description": "(§1) Male weanling rats were obtained from Sprague Dawley Co. (Indianapolis, Ind.) and fed a 0.47% calcium, 0.3% phosphorus vitamin D-deficient diet for 1 week and then given the same diet containing 0.02% calcium, 0.3% phosphorus for 3 weeks. During the last week they were given the indicated dose of compound by intraperitoneal injection in 0.1 ml 95% propylene glycol and 5% ethanol each day for 7 days. The control animals received only the 0.1 ml of 95% propylene glycol, 5% ethanol. Twenty-four hours after the last dose, the rats were sacrificed and intestinal calcium transport was determined by everted sac technique as previously described and serum calcium determined by atomic absorption spectrometry on a model 3110 Perkin Elmer instrument (Norwalk, Conn.). There were 5 rats per group and the values represent mean ±SEM."}, "[2]": {"system": "HL-60 cells", "conditions": "compared to 1,25-(OH)2D3; FIG. 2", "description": "The differentiation of HL-60 promyelocytic into monocytes was determined as described by Ostrem et al (J. Biol. Chem. 262, 14164-14171, 1987)."}, "[3]": {"target": "T1, porcine intestinal vitamin D receptor (Sus scrofa, UniProt A3RGC1)", "T1 sequence (A3RGC1 1-427)": "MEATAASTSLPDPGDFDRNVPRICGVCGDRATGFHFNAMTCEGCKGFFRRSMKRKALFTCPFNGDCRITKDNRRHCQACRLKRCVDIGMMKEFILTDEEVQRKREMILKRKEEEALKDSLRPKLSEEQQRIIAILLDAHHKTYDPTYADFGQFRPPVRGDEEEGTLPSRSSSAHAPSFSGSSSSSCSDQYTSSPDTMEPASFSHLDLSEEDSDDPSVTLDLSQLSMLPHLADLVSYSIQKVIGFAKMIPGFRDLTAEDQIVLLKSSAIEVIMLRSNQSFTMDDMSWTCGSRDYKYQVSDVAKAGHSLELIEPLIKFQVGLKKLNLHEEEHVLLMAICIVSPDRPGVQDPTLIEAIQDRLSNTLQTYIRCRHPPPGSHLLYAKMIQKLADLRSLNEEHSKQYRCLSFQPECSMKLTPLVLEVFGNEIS", "assay": "Competitive binding of [3H]-1,25-(OH)2-D3 to the porcine intestinal vitamin D receptor", "conditions": "at low concentrations; FIG. 1", "experimental": "Competitve binding of the analogs to the porcine intestinal receptor was carried out by the method described by Dame et al (Biochemistry 25, 4523-4534, 1986)."}, "[4]": {"system": "Serum Calcium (Bone Calcium Mobilization)", "assay": "Serum calcium (bone calcium mobilization) in vitamin D-deficient rats after chronic dosing", "format": "in vivo", "conditions": "for Serum Calcium (mg/100 ml): intraperitoneal, vitamin D-deficient low calcium diet rats, mean ± SEM, 24 h after last dose; for bone calcium mobilizing activity (in words): versus control, given for 7 days in a chronic mode", "description": "as §1"}}, "data": [{"molecule": "C=CC12CCC/C(=C\\C=C3C[C@@H](O)C[C@H](O)C3)[C@@H]1CC[C@@H]2[C@H](C)CCCC(C)(C)O", "note": "(stereo partly drawn) [13-Vinyl-18,19-Dinor-1,25-(OH)2D3, 1α,25-dihydroxy-13-vinyl-18,19-dinor-vitamin D3]", "values": [{"measurement": "Intestinal Calcium Transport (S/M)", "setting": "[1]; 260 pmol/day for 7 days", "result": "4.02 ± 0.24", "unit": "S/M"}, {"measurement": "Intestinal Calcium Transport (S/M)", "setting": "[1]; 500 pmol/day for 7 days", "result": "4.25 ± 0.55", "unit": "S/M"}, {"measurement": "intestinal calcium transport activity (in words)", "setting": "[1]", "result": "no significant change versus control"}, {"measurement": "activity in inducing differentiation of HL-60 cells to the monocyte", "setting": "[2]", "result": "activity similar to 1,25-(OH)2D3"}, {"measurement": "binding activity compared to 1,25-(OH)2D3", "setting": "[3]", "result": "approximately twice"}, {"measurement": "Serum Calcium (mg/100 ml)", "setting": "[4]; 260 pmol/day for 7 days", "result": "3.32 ± 0.21", "unit": "mg/100 ml"}, {"measurement": "Serum Calcium (mg/100 ml)", "setting": "[4]; 500 pmol/day for 7 days", "result": "3.52 ± 0.12", "unit": "mg/100 ml"}, {"measurement": "bone calcium mobilizing activity (in words)", "setting": "[4]", "result": "no significant change versus control"}]}, {"molecule": "C[C@H](CCCC(C)(C)O)[C@H]1CC[C@H]2/C(=C/C=C3C[C@@H](O)C[C@H](O)C3)CCC[C@]12C", "note": "[19-Nor-1,25-(OH)2D3, 1α,25-dihydroxy-19nor-vitamin D3, reference compound]", "values": [{"measurement": "Intestinal Calcium Transport (S/M)", "setting": "[1]; 260 pmol/day for 7 days", "result": "4.02 ± 0.50", "unit": "S/M"}, {"measurement": "Serum Calcium (mg/100 ml)", "setting": "[4]; 260 pmol/day for 7 days", "result": "3.83 ± 0.20", "unit": "mg/100 ml"}]}, {"molecule": "CC[C@]12CCC/C(=C\\C=C3C[C@@H](O)C[C@H](O)C3)[C@@H]1CC[C@@H]2[C@H](C)CCCC(C)(C)O", "note": "[13-Ethyl-18,19-Dinor-1,25-(OH)2D3, 1α,25-dihydroxy-13-ethyl-18,19-dinor-vitamin D3]", "values": [{"measurement": "Intestinal Calcium Transport (S/M)", "setting": "[1]; 260 pmol/day for 7 days", "result": "4.30 ± 0.20", "unit": "S/M"}, {"measurement": "Intestinal Calcium Transport (S/M)", "setting": "[1]; 500 pmol/day for 7 days", "result": "4.40 ± 0.27", "unit": "S/M"}, {"measurement": "intestinal calcium transport activity (in words)", "setting": "[1]", "result": "no significant change versus control"}, {"measurement": "activity in inducing differentiation of HL-60 cells to the monocyte", "setting": "[2]", "result": "activity similar to 1,25-(OH)2D3"}, {"measurement": "binding activity compared to 1,25-(OH)2D3", "setting": "[3]", "result": "approximately twice"}, {"measurement": "Serum Calcium (mg/100 ml)", "setting": "[4]; 260 pmol/day for 7 days", "result": "4.39 ± 0.53", "unit": "mg/100 ml"}, {"measurement": "Serum Calcium (mg/100 ml)", "setting": "[4]; 500 pmol/day for 7 days", "result": "3.99 ± 0.33", "unit": "mg/100 ml"}, {"measurement": "bone calcium mobilizing activity (in words)", "setting": "[4]", "result": "no significant change versus control"}]}]}
